Laboratory results published in patent publication EP0421419A2, “Tocotrienols in the treatment of hypercholesterolemia, hyperlipidemia and thromboembolic disorders” (Bristol-Myers Squibb Company, priority 1989, dated 1991).

Columns and labels:
[1] = system: Lipid Metabolism; assay: Lipid metabolism in genetically hypercholesterolemic swine fed compound in diet; format: in vivo; settings: 4 weeks; for Serum Cholesterol: 75 ppm in corn-soybean meal control diet, control 406.7(±12.8); for HDL-Cholesterol [% of Control] / LDL-Cholesterol [% of Control] / Serum Cholesterol [% of Control] / Serum Triglycerides [% of Control] / HDL/LDL / HDL-Cholesterol / Serum Triglycerides / LDL-Cholesterol: 75 ppm in diet; for HDL/LDL: control 0.078; for HDL-Cholesterol: control 28.8(±1.1); for Serum Triglycerides: control 67.9(±2.8); for LDL-Cholesterol: control 367.1(±15.7)
Excerpt: Genetically hypercholesterolemic swine (3 per group) were fed for four weeks on either a standard corn-soybean-based control diet or an experimental diet. The experimental diet consisted of the standard mix containing either gamma-tocotrienol or delta-tocotrienol at 75 ppm. The same protocol used for the chicken study was used for the swine group, except HMG-CoA reductase levels were not determined in this case. […] The HDL/LDL atherogenic index as before improved dramatically with drug treatment (Table 7).

[2] = system: Cholesterol Synthesis in HepG2 Cells; assay: HepG2 cell culture model, 14C-acetate incorporation assay; format: cell-based, human; settings: Homo sapiens, HepG2; 10 µM, about 4 hours; read-out: % Inhibition 14C-Ac
Protocol: HepG2 cells obtained from the American Type Culture Collection were routinely passaged in RPMI-1640 plus 10% fetal bovine serum (FBS) and were subcultured into 35 mm diameter wells for experiments. […] The LDS medium supplement was prepared according to Cham et al., J. Lipid Res., 17: 176-181, (1976). After about 16 hours in LDS containing media, test compounds were added in dimetthylsulfoxide vehicle (0.5% v/v final conc.) for the period of time indicated in the data (generally 4 hours). Cholesterol synthesis was then directly determined by the incorporation of 2-14C-acetate (1.8-3.0 mCi/mmol) into digitonin-precipitable sterols essentially as described for the rat hepatocyte methol above. Greater than 97% of the radiolabelled sterol isolated by this procedure was cholesterol as judged by HPLC. Percent inhibition was calculated from the average of duplicates or triplicates vs. controls receiving vehicle.
(§1) The human hepatoma HepG2 cell culture model was employed to compare the intrinsic activities of the tocotrienols. HepG2 cells were incubated with the indicated compounds for about 4 hours at 10 µM. Cholestrol synthesis was assayed by 14C-acetate incorporation and HMG-CoA reductase suppression was assayed in the isolated microsomal fraction. Cholesterol synthesis inhibition was assayed by 14C-acetate incorporation after preincubation of HepG2 cells with the compounds for about 2 hours or about 4 hours (Example IV). […] As the data in Figure 1 indicate, gamma-tocotrienol has an even greater relative potency compared to alpha-tocotrienol in the HepG2 cell model than in rat hepatocytes. The IC50s from these studies are given in Table 3, in which it can be seen that the intrinsic potency of gamma-tocotrienol is over 30-fold greater than that of alpha-tocotrienol.

[3] = system: Lipid Metabolism; assay: Lipid metabolism in normocholesterolemic chickens fed compound in diet; format: in vivo; settings: 20 ppm in corn control diet, 4 weeks; for HDL/LDL: control 1.413; for LDL-Cholesterol: control 76.0(±5.3); for HDL-Cholesterol: control 107.4(±7.0); for Serum Triglycerides: control 115.2(±13); for Serum Cholesterol: control 197.0(±5.2)
Protocol: (§2) Natural gamma-tocotrienol and delta-tocotrienol were evaluated for their hypocholesterolemic action in normocholesterolemic chickens and genetically hypercholesterolemic swine. Newborn male chicks (10 for each group) were raised on a standard corn-soybean-based control diet for two weeks and then were switched to either control or experimental diets for four weeks. Drug treatment consisted of the addition of gamma-tocotrienol or delta-tocotrienol to the corn-soybean-based diet at a concentration of 20 ppm. At the end of the feeding period, all the birds were fasted (about 36 hours) and refed (about 48 hours) to induce cholesterolgenic emzymes prior to sacrifice. The specific activity of HMG-CoA reductase, total serum cholesterol levels, HDL/LDL cholesterol pools, and serum triglyceride levels were examined (Table 5).
Similarly, synthetic gamma-tocotrienol was administered to male chicks at 50 ppm using the same protocol except HMG-CoA reductase levels were not determined.

[4] = system: HMG-CoA reductase; assay: HMG-CoA reductase specific activity in chickens fed compound in diet; format: in vivo; settings: 20 ppm in corn control diet, 4 weeks; for HMG-CoA Reductase Specific Acticity: 6-week old male chickens, control 1086.9(±114.0)
Protocol: as §2

[5] = system: HMG-CoA reductase; assay: HepG2 cell culture model, HMG-CoA reductase suppression assay; format: cell-based, human; settings: 10 µM, about 4 hours, HepG2 cells
Protocol: HMG-CoA reductase suppression in HepG2 cells was conducted by growing cells in RPMT-1640 plus 10% FBS on 100 mm plates, and when cells reached approximately 75% confluency, inducing with LDS (as described above) for about 16 hours prior to assays. Compounds were added using dimethylsulfoxide vehicle (0.5% v/v, final) and after about 4 hours of incubation at 37°, cells were harvested by scraping. Cell pellets were rinsed and lysed by sonication in 1.7 ml cold 50 mM imidazole-HCL, pH 7.2, 50 mM NaCl, 10 mM EDTA, 10 mM EGTA, 5 mM DTT, and 40µM leupeptin). Lysates were centriguged at 150 x g and the supernatant was centrifuged at 100,000 x g in a Beckman airfuge to isolate the post-nuclear total membrane fraction. The membranes were resuspended in 50 mM imidazole-HCl, pH 7.2, 250 mM NaCl, 5 mM DTT, and 20µM leupeptin and used for the assay of HMG-CoA reductase activity by the radiochemical procedure as described previously by Parker et al., J. Biol. Chem., 264: 4877-4887, (1989). Values were normalized for protein content by the Lowry method as cited previously (ibid). HMG-CoA reductase percent suppression was calculated as the decrease in specific activity of HMG-CoA reductase for treated cells vs. controls receiving vehicle. Averages of duplicate cell determinations assayed in duplicate were taken.
as §1
The mechanism of cholesterol synthesis inhibition by tocotrienols involves down regulation of the limiting enzyme of sterol synthesis, HMG-CoA reductase. […] The suppression of HMG-CoA reductase protein expression by gamma-tocotrienol and delta-tocotrienol in HepG2 cells and in rat liver has been confirmed by immunoassy using the Western blot technique (data not shown).

Row | Compound | Serum Cholesterol [1] | HDL-Cholesterol [% of Control] [1] | LDL-Cholesterol [% of Control] [1] | Serum Cholesterol [% of Control] [1] | Serum Triglycerides [% of Control] [1] | HDL/LDL [1] | HDL-Cholesterol [1] | Serum Triglycerides [1] | LDL-Cholesterol [1] | inhibition at 10 µM [2] | HDL-Cholesterol [% of Control] [3] | LDL-Cholesterol [% of Control] [3] | Serum Cholesterol [% of Control] [3] | Serum Triglycerides [% of Control] [3] | HDL/LDL [3] | LDL-Cholesterol [3] | HDL-Cholesterol [3] | Serum Triglycerides [3] | Serum Cholesterol [3] | HMG-CoA Reductase Specific Acticity [% of Control] [4] | also measured
1 | CC(C)=CCC/C(C)=C/CC/C(C)=C/CC[C@]1(C)CCc2cc(O)c(C)c(C)c2O1 [d-γ-tocotrienol] | 212.8(±9.0) mg/dl | 104.5% | 46.0% | 51.3% | 76.4% | 0.172 | 29.8(±2.9) mg/dl | 50.9(±3.1) mg/dl | 172.8(±7.1) mg/dl | 78% | 95.3% | 56.7% | 76.4% | 82.8% | 1.669 | 43.1(±8.3) mg/dl | 102.3(±4.5) mg/dl | 95.4(±5.9) mg/dl | 150.5(±4.2) mg/dl | 45.5% | HMG-CoA Reductase Specific Acticity [4]: 494.2(±22.9); % Suppression HMG-CoA Reductase [5]: 64%
2 | CC(C)=CCC/C(C)=C/CC/C(C)=C/CC[C@]1(C)CCc2cc(O)cc(C)c2O1 [d-δ-tocotrienol] | 214.9(±18.6 mg/dl | 105.3% | 44.8% | 47.7% | 70.3% | 0.189 | 34.4(±1.9) mg/dl | 44.4(±1.3) mg/dl | 182.2(±8.2) mg/dl | 79% | 91.9% | 53.7% | 71.5% | 77.0% | 2.419 | 40.8(±6.6) mg/dl | 98.7(±8.4) mg/dl | 88.7(±7.3) mg/dl | 140.9(±3.1) mg/dl | 50.6% | HMG-CoA Reductase Specific Acticity [4]: 550.2(±33.8); % Suppression HMG-CoA Reductase [5]: 65%
